Source: paper PMC6026185 (Scientific Reports, 2018)
Where two headings read alike, the source gives them in different places.

Key:
[1] = system: NKCC2; parameters: method as in ref Palfrey et al.[48]; Schlatter et al.[23]; Frelin et al.[49]; O’Grady et al.[50]; Glanville et al.[51]; Hannaert et al.[52]; settings: Rabbit kidney TAL; rat kidney TAL; NKCC2 isoforms not differentiated; ref Palfrey et al.[48]; Schlatter et al.[23]; Frelin et al.[49]; O’Grady et al.[50]; Glanville et al.[51]; Hannaert et al.[52]; cited from earlier work
[2] = system: NKCC1; settings: Activated state; isoforms not differentiated; turkey erythrocytes; mIMCD-K2 cells; chick cardiac cells; winter flounder intestine; rat erythrocytes and thymocytes; ref Palfrey et al.[48]; Schlatter et al.[23]; Frelin et al.[49]; O’Grady et al.[50]; Glanville et al.[51]; Hannaert et al.[52]; cited from earlier work
[3] = molecular target: T1, hNKCC1A (Homo sapiens, UniProt P55011); parameters: method as in ref Payne et al.[57]; Isenring et al.[58]; Plata et al.[59]; Carota et al.[56]; Lykke et al.[60]; Lykke et al.[29]; settings: Xenopus oocytes; activated state; ref Payne et al.[57]; Isenring et al.[58]; Plata et al.[59]; Carota et al.[56]; Lykke et al.[60]; Lykke et al.[29]; read-out: IC50 (µM) NKCC1 (hA); cited from earlier work
T1 construct: Full-length NKCC1 (NKCC1A) comprises ~1200 amino acids; expressed in transfected cells; host or cells: Xenopus laevis oocytes injected with cRNA (pXOOM vector)
T1 sequence (P55011 1-1212): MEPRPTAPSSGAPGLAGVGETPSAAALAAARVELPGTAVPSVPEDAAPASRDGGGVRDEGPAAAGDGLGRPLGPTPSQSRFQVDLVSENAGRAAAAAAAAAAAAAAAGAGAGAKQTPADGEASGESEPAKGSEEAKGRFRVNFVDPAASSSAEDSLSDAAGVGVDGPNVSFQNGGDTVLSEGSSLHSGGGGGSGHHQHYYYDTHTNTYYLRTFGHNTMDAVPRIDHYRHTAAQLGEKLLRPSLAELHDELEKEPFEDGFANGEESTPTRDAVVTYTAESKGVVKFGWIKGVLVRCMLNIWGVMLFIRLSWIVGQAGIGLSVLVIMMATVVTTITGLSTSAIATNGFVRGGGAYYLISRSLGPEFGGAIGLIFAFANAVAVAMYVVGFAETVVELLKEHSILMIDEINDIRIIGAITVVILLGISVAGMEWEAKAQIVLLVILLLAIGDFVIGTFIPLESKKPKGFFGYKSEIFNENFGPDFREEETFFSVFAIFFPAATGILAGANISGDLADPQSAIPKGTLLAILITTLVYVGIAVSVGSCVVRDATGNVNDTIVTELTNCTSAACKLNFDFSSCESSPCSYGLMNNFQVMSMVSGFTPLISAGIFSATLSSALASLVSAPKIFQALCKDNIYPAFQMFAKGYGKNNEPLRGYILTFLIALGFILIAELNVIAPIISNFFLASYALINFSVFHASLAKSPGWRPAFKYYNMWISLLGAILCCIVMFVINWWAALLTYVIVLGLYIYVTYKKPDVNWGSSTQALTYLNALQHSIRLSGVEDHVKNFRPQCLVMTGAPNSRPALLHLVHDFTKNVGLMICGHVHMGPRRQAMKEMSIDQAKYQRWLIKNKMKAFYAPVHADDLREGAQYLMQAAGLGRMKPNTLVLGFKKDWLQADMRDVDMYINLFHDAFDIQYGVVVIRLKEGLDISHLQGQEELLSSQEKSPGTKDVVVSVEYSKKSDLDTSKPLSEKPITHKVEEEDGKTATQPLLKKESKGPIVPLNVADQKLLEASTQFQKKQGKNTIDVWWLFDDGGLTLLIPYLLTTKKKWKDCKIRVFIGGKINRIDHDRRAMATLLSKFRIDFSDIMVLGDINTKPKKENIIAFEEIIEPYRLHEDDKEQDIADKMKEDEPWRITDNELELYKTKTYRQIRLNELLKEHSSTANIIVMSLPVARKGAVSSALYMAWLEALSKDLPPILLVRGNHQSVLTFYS

[4] = molecular target: T1, hNKCC1A; experiment: 86Rb+ uptake in hNKCC1A-expressing Xenopus laevis oocytes; assay type: cell-based; settings: 86Rb+ uptake, Xenopus oocytes, 5 min, corrected for uninjected oocytes; median and range of 3–7 experiments
Protocol: The oocytes were kept in Kulori medium (in mM: 90 NaCl, 1 KCl, 1 CaCl2, 1 MgCl2, 5 Hepes, pH 7.4, 182 mOsm) for 5–6 days at 19 °C prior to experiments.
To activate NKCC1A and NKCC1B prior to the ^86Rb^+ uptake measurements aimed at measuring NKCC-mediated fluxes, hNKCC1A- or hNKCC1B-expressing oocytes or uninjected control oocytes (4–13 oocytes per well) were pre-incubated for 30 min at room temperature in a K^+-free solution (containing in mM: 5 choline chloride, 95 NaCl, 1 MgCl2, 1 CaCl2, 10 Hepes, pH 7.4, 207 mOsm), which causes shrinkage of the oocyte and thus activation of NKCC1A[22]. […] The radioactivity was determined by liquid scintillation β-counting with Aquasafe 300 Plus scintillation cocktail (Zinsser Analytic GmbH, Frankfurt, Germany) using a Microbeta Trilux (Perkin Elmer). hNKCC1-mediated K^+ uptake was assessed as ([fluxNKCC1-expressing oocytes in presence of x µM drug]−[fluxuninjected oocytes in presence of x µM drug]), in order to correct for endogenous NKCC activity. […]
Significance of differences in transport activity of hNKCC1A or hNKCC1B expressing oocytes vs. uninjected oocytes were analyzed by the Kruskal-Wallis test followed by Dunn’s multiple comparisons test. […]

[5] = system: mNKCC2 isoform A; parameters: method as in ref Payne et al.[57]; Isenring et al.[58]; Plata et al.[59]; Carota et al.[56]; Lykke et al.[60]; Lykke et al.[29]; settings: Xenopus oocytes; ref Payne et al.[57]; Isenring et al.[58]; Plata et al.[59]; Carota et al.[56]; Lykke et al.[60]; Lykke et al.[29]; read-out: IC50 (µM) NKCC2 (mA); cited from earlier work

- IC50 [4]: 0.945 µM
Structure (SMILES): CCCCNc1cc(C(=O)O)cc(S(N)(=O)=O)c1Oc1ccccc1 [Bumetanide]
- IC50 [1]: 0.2 to 0.33 µM
- IC50 [2]: 0.25 to 0.6 µM
- IC50 [3]: 0.68 µM
- IC50 [5]: 2 µM
